Results on 1 compound are retold here after US4172782A, “Recovery of catalyst” (Sumitomo Chemical Company, Limited, priority 1977, dated 1979).

The nature of the data set: Solubility of tetra-n-butylammonium bromide in aqueous sodium hydroxide solutions. Type of data set: physicochemical. Conditions: aqueous NaOH, 20° C. The protocol:
The organic quaternary ammonium salt is soluble both in water and in the oil layer. Its solubility in an aqueous alkali solution varies with the concentration of the alkali. The solubilities of tetra-n-butylammonium bromide, as an example of organic quaternary ammonium salts, in aqueous sodium hydroxide solutions were measured at 20° C. and the results obtained were as shown in Table 1.

Take `CCCC[N+](CCCC)(CCCC)CCCC.[Br-]` [tetra-n-butylammonium bromide]: the “Solubility of tetra-n-butylammonium bromide” value was 27 % by wt (1% by wt.); 11 % by wt (2% by wt.); 2.4 % by wt (5% by wt.); 1.2 % by wt (10% by wt.); 0.07 % by wt (15% by wt.).
